Measured values from the supplement of paper PMC9780213.

Legend:
Settings in all cases: treatment time: 24 h
U2OS-LMNB1-TUBA1B-ACTB = assay: cell count relative to DMSO control (panel C1, DRAQ5/ER stain) (fraction of control); higher = more cells (less toxicity)
Experimental: (§1)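 U2OS-derived cells in 384-well plates were treated for 24 h with a 7-point 2-fold dilution series (top dose 20 µM for most compounds; final max DMSO 1%), then fixed, stained in four marker panels and imaged on a Cellomics ArrayScan. Cell count per treatment (three replicate plates merged) is given as a fraction of DMSO control. Panel A used parental U2OS, panel B U2OS-mOrange2-Peroxisome, panel C1 U2OS-LMNB1-TUBA1B-ACTB (DRAQ5 nuclei).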

U2OS-mOrange2-Peroxisome = assay: cell count relative to DMSO control (panel B, lysosome/peroxisome/lipid stain) (fraction of control); higher = more cells (less toxicity)
Experimental: as §1

U2OS = assay: cell count relative to DMSO control (panel A, nuclei/RNA/PMG/mitochondria stain) (fraction of control); higher = more cells (less toxicity)
Experimental: as §1

Row | Structure (SMILES) | cell count (U2OS-LMNB1-TUBA1B-ACTB; 0.15625 µM) | cell count (U2OS-LMNB1-TUBA1B-ACTB; 0.3125 µM) | cell count (U2OS-LMNB1-TUBA1B-ACTB; 0.625 µM) | cell count (U2OS-LMNB1-TUBA1B-ACTB; 1.25 µM) | cell count (U2OS-LMNB1-TUBA1B-ACTB; 2.5 µM) | cell count (U2OS-LMNB1-TUBA1B-ACTB; 5 µM) | cell count (U2OS-LMNB1-TUBA1B-ACTB; 10 µM) | cell count (U2OS-mOrange2-Peroxisome; 0.15625 µM) | cell count (U2OS-mOrange2-Peroxisome; 0.3125 µM) | cell count (U2OS-mOrange2-Peroxisome; 0.625 µM) | cell count (U2OS-mOrange2-Peroxisome; 1.25 µM) | cell count (U2OS-mOrange2-Peroxisome; 2.5 µM) | cell count (U2OS-mOrange2-Peroxisome; 5 µM) | cell count (U2OS-mOrange2-Peroxisome; 10 µM) | cell count (U2OS; 0.15625 µM) | cell count (U2OS; 0.3125 µM) | cell count (U2OS; 0.625 µM) | cell count (U2OS; 1.25 µM) | cell count (U2OS; 2.5 µM) | cell count (U2OS; 5 µM) | cell count (U2OS; 10 µM) | cell count (U2OS-LMNB1-TUBA1B-ACTB; 20 µM) | cell count (U2OS-mOrange2-Peroxisome; 20 µM) | cell count (U2OS; 20 µM) | cell count (U2OS-LMNB1-TUBA1B-ACTB; 0.07812 µM) | cell count (U2OS-mOrange2-Peroxisome; 0.07812 µM) | cell count (U2OS; 0.07812 µM)
1 | CC[C@H]1/C=C/C=C/C[C@@H](C)[C@H](O)[C@@](C)(O)C(=O)[C@@H](C)[C@H](O)[C@@H](C)C(=O)[C@@H](C)[C@H](O)[C@@H](C)/C=C/C(=O)O[C@@H]2[C@H](C)[C@H](CC1)O[C@]1(CC[C@H](C)[C@H](C[C@@H](C)O)O1)[C@H]2C [oligomycin-a] | 0.621 | 1.03 | 1.07 | 1 | 1.03 | 1.09 | 1.05 | 0.52 | 0.906 | 0.944 | 0.895 | 0.858 | 1.21 | 1.09 | 0.555 | 0.986 | 0.995 | 1.04 | 0.938 | 0.99 | 0.925 | – | – | – | – | – | –
2 | CC(=O)O[C@H]1C(=O)[C@@]2(C)[C@H]([C@H](OC(=O)c3ccccc3)[C@]3(O)C[C@H](OC(=O)[C@H](O)[C@@H](NC(=O)c4ccccc4)c4ccccc4)C(C)=C1C3(C)C)[C@]1(OC(C)=O)CO[C@@H]1C[C@@H]2O [paclitaxel] | – | 1.04 | 1.09 | 1.08 | 1.05 | 0.93 | 1.14 | – | 0.878 | 0.695 | 0.709 | 0.787 | 0.849 | 0.843 | – | 0.956 | 1.05 | 0.97 | 0.928 | 1.04 | 1 | 0.992 | 1.14 | 1 | – | – | –
3 | CCCCCCCCCCCCCCCCCCOP(=O)([O-])OC1CC[N+](C)(C)CC1 [perifosine] | – | 1.11 | 1.15 | 1.09 | 0.996 | 1.01 | 0.753 | – | 0.846 | 0.987 | 0.869 | 0.928 | 1.12 | 0.704 | – | 0.989 | 1.07 | 1.02 | 0.99 | 0.979 | 0.592 | 0.363 | 0.364 | 0.285 | – | – | –
4 | COc1cc([C@@H]2c3cc4c(cc3[C@H](O)[C@H]3COC(=O)[C@@H]23)OCO4)cc(OC)c1OC [picropodophyllin] | 0.924 | 0.954 | 1.04 | 1.03 | 1.02 | 0.926 | 0.738 | 0.97 | 0.803 | 1.07 | 0.951 | 1.42 | 1.24 | 1.15 | 0.97 | 0.88 | 0.899 | 0.978 | 0.94 | 0.929 | 0.701 | – | – | – | – | – | –
5 | NS(=O)(=O)C#Cc1ccccc1 [pifithrin-mu] | 1.14 | 1.09 | 1.06 | 1.08 | 1.07 | 1.1 | 0.97 | 1.01 | 1.02 | 0.981 | 0.941 | 1.08 | 1.02 | 1.13 | 1.06 | 1.07 | 1.11 | 1.05 | 0.983 | 0.953 | 1.05 | – | – | – | – | – | –
6 | COc1ccc(C[C@H](N)C(=O)N[C@H]2[C@@H](O)[C@H](n3cnc4c(N(C)C)ncnc43)O[C@@H]2CO)cc1 [puromycin] | 0.997 | 1.11 | 1.13 | 0.957 | 1.02 | 1.02 | – | 0.924 | 1.07 | 1.09 | 1.11 | 1.29 | 1.52 | – | 1.05 | 1.03 | 1.06 | 0.995 | 1.03 | 0.957 | – | – | – | – | 1.1 | 1.01 | 1.06
7 | COc1ccc(C2CNC(=O)C2)cc1OC1CCCC1 (configuration not stated) [rolipram] | – | 0.979 | 1.14 | 0.963 | 1.03 | 1.01 | 1.02 | – | 0.884 | 0.894 | 1 | 0.96 | 1.13 | 0.726 | – | 1.04 | 1.07 | 0.964 | 0.96 | 0.915 | 1 | 1.01 | 1 | 0.959 | – | – | –
8 | O=C(/C=C\n1cnc(-c2cc(C(F)(F)F)cc(C(F)(F)F)c2)n1)NNc1cnccn1 [selinexor] | – | 1.1 | 1.06 | 1.12 | 1.15 | 1.07 | 0.834 | – | 0.905 | 0.657 | 0.758 | 0.705 | 0.676 | 0.598 | – | 1.01 | 0.994 | 1.03 | 0.971 | 0.9 | 0.779 | 0.693 | 0.484 | 0.502 | – | – | –
9 | CO[C@H]1C[C@@H]2CC[C@@H](C)[C@@](O)(O2)C(=O)C(=O)N2CCCC[C@H]2C(=O)O[C@H]([C@H](C)C[C@@H]2CC[C@@H](O)[C@H](OC)C2)CC(=O)[C@H](C)/C=C(\C)[C@@H](O)[C@@H](OC)C(=O)[C@H](C)C[C@H](C)/C=C/C=C/C=C/1C [sirolimus] | – | 1.12 | 0.947 | 1.07 | 0.944 | 0.94 | 0.711 | – | 0.81 | 0.644 | 0.677 | 0.521 | 0.453 | 0.451 | – | 1.08 | 0.8 | 0.967 | 1.05 | 0.947 | 0.766 | 0.745 | 0.372 | 0.755 | – | – | –
10 | CC(NC(=O)c1ccccc1/N=C/c1c(O)ccc2ccccc12)c1ccccc1 (configuration not stated) [sirtinol] | – | 0.886 | 0.842 | 0.727 | 0.552 | 0.338 | 0.357 | – | 0.607 | 0.507 | 0.491 | 0.365 | 0.37 | 0.373 | – | 0.858 | 0.782 | 0.659 | 0.462 | 0.195 | 0.192 | 0.367 | 0.339 | 0.17 | – | – | –
11 | C=CCNC1=C2C[C@@H](C)C[C@H](OC)[C@H](O)[C@@H](C)/C=C(\C)[C@H](OC(N)=O)[C@@H](OC)/C=C\C=C(/C)C(=O)NC(=CC1=O)C2=O [tanespimycin] | 1.03 | 1.06 | 0.956 | 0.938 | 0.501 | 0.0736 | – | 0.803 | 0.767 | 0.7 | 0.405 | 0.144 | 0.148 | – | 0.976 | 0.929 | 0.901 | 0.686 | 0.307 | 0.0406 | – | – | – | – | 1.06 | 1.48 | 1
12 | COc1ccc2cc1Oc1ccc(cc1)C[C@H]1c3cc(c(OC)cc3CCN1C)Oc1c(OC)c(OC)cc3c1[C@H](C2)N(C)CC3 [tetrandrine] | – | 1.04 | 1.06 | 1.06 | 1.05 | 0.976 | 0.796 | – | 0.838 | 0.86 | 0.958 | 0.976 | 0.895 | 0.827 | – | 0.949 | 1 | 1.01 | 0.97 | 0.905 | 0.781 | 0.639 | 0.488 | 0.631 | – | – | –
13 | Cc1c(Cl)cccc1Nc1ccccc1C(=O)O [tolfenamic-acid] | – | 1.01 | 1.1 | 1.11 | 1.07 | 0.998 | 1.12 | – | 0.753 | 0.959 | 0.883 | 0.953 | 0.933 | 1.01 | – | 0.992 | 1.06 | 1.03 | 1.1 | 1.04 | 1.03 | 1.03 | 1.22 | 0.963 | – | – | –
14 | CC(C=CC(=O)NO)=C[C@@H](C)C(=O)c1ccc(N(C)C)cc1 [trichostatin-a] | – | 1.04 | 0.942 | 0.773 | 0.619 | 0.639 | 0.517 | – | 0.582 | 0.501 | 0.516 | 0.585 | 0.605 | 0.228 | – | 0.888 | 0.737 | 0.497 | 0.466 | 0.427 | 0.258 | 0.314 | 0.0857 | 0.142 | – | – | –
15 | CC(=O)N[C@H]1[C@@H](O[C@@H]2O[C@H](CC(O)[C@H]3O[C@@H](n4ccc(=O)[nH]c4=O)[C@H](O)[C@@H]3O)[C@H](O)[C@H](O)[C@H]2NC(=O)/C=C/CC(C)C)O[C@H](CO)[C@@H](N)[C@@H]1O (some centres not stated) [tunicamycin] | 0.611 | 0.555 | 0.626 | 0.596 | 0.552 | 0.491 | – | 0.477 | 0.558 | 0.528 | 0.587 | 0.448 | 0.517 | – | 0.654 | 0.663 | 0.582 | 0.61 | 0.535 | 0.535 | – | – | – | – | 0.934 | 0.498 | 0.979
16 | CC[C@]1(O)C[C@H]2CN(CCc3c([nH]c4ccccc34)[C@@](C(=O)OC)(c3cc4c(cc3OC)N(C=O)[C@H]3[C@@](O)(C(=O)OC)[C@H](OC(C)=O)[C@]5(CC)C=CCN6CC[C@]43[C@@H]65)C2)C1 [vincristine] | – | 0.617 | 0.651 | 0.606 | 0.557 | 0.576 | 0.58 | – | 0.728 | 0.834 | 0.678 | 0.793 | 0.752 | 0.769 | – | 0.508 | 0.506 | 0.522 | 0.496 | 0.465 | 0.486 | 0.59 | 0.685 | 0.456 | – | – | –
17 | O=C(CCCCCCC(=O)Nc1ccccc1)NO [vorinostat] | – | 1.1 | 1.02 | 0.995 | 0.911 | 1.01 | 0.794 | – | 0.929 | 1.04 | 0.893 | 1.13 | 0.926 | 0.812 | – | 1.12 | 1.1 | 0.993 | 1.03 | 1.02 | 0.899 | 0.208 | 0.292 | 0.304 | – | – | –
